According to patent US6294580A, “Substituted 4-hydroxy-phenylalcanoic acid derivatives with agonist activity to PPAR-gamma” (Glaxo Wellcome Inc., priority 1996, dated 2001):
Counter-ions that a name gives are not always drawn. Like-named read-outs stand apart in the source and are kept apart here.

Experiments:
hPPARgamma = biological target: T1, hPPARgamma (Homo sapiens, UniProt P37231); assay: hPPARgamma Ligand Binding Assay; conditions: competition with [3H]-BRL 49,653, room temperature 2 hrs
T1 construct: 10x-histidine tag (N); made in house; host or cells: E. coli
T1 sequence (P37231 195-475 isoform P37231-2): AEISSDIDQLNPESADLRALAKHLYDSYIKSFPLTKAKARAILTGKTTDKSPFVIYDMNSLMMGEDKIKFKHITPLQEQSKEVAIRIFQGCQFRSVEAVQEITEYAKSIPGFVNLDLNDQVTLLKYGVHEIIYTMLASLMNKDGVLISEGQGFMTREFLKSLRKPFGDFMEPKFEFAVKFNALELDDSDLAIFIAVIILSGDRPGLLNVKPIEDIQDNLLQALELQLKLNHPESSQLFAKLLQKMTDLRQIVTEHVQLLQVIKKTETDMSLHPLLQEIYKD
Protocol: 2. hPPARgamma Ligand Binding Assay: The PPAR-gamma ligand binding domain (amino acids 195-475) was expressed with an N-terminal 10×-histidinetag in E. coli cells. The cells were lysed and receptor was purified by means of the epitope tag. The stock solution of protein was diluted to 200 nM in assay buffer (50 mM Tris, 50 mM KCl, pH 8 20 mM CHAPS, 2 mM EDTA 10 mM DTT (Fresh)) just before use.
Test compounds were prepared as 6 mM stock solutions in DMSO. […] The right-most column of wells was used for controls. […] Plates were incubated at room temperature for 2 hrs, and then cooled on ice for 30 minutes. 50 uL samples from each well of a single test plate were simultaneously loaded onto an equilibrated AGTC 96 well gel filtration block (Advanced Genetics Technology Corp.) using a Zymak Rapidplate automated pipettor. The block was placed on top of a clean microtiter plate and centrifuged @1,100×g for 4 min. 200 uL of scintillation fluid was added to each well, the plates were sealed and allowed to equilibrate for at least 4 hours before counting in a Wallac 1250 Microbeta counter.
Ki's were determined from a nonlinear least squares fit of the data to a simple competitive binding model.

PPARg = assay: PPARgamma Transient Cotransfection Assay; type: cell-based; conditions: CAT reporter, read-out: PPARg EC50

| Compound | Ki (hPPARgamma; PPARg Ki) [µM] | EC50 (PPARg) [µM] | Ki (hPPARgamma; read-out: PPARg Ki) [µM] |
| --- | --- | --- | --- |
| Cc1oc(-c2ccccc2)nc1CCOc1ccc(C[C@H](Nc2ccccc2C(=O)c2cccnc2)C(=O)O)cc1 [Example 58, 3-{4-[2-(5-Methyl-2-phenyl-oxazol-4-yl)-ethoxy]-phenyl}-2(S)-[2-(pyridine-3-carbonyl)-phenylamino]-propionic acid] | 0.03 | 0.001 |  |
| COC(=O)c1ccccc1N[C@@H](Cc1ccc(OCCSc2ccc(Cl)cn2)cc1)C(=O)O [Example 70] |  | 0.2 | 0.25 |
| O=C(c1ccccc1)c1ccsc1NC(Cc1ccc(OCc2ccccc2)cc1)C(=O)O (centres unmarked) [Example 8, 2-(3-Benzoyl-thiophen-2-yl-amino)-3-(4-benzyloxy-phenyl)-propionic acid] | 0.021 | 0.72 |  |
| Cc1oc(-c2ccccc2)nc1CCOc1ccc(C[C@H](Nc2ccccc2C(=O)c2cc[n+]([O-])cc2)C(=O)O)cc1 [Example 57, 3-{4-[2-(5-methyl-2-phenyl-oxazol-4-yl)-ethoxy]-phenyl}-2(S)-[2-(pyridineN-oxide-4-carbonyl)-phenylamino]-propionic acid] | 1.24 | 0.15 |  |
| Cc1oc(-c2ccccc2)nc1CCOc1ccc(CC(Nc2ccccc2C(=O)c2cccc(CN)c2)C(=O)O)cc1 (centres unmarked) [Example 86, 2-[2-(3-aminomethyl-benzoyl)-phenylamino]-3-{4-[2-(5-methyl-2-phenyl-oxazol-4-yl)-ethoxy]-phenyl}-propionic acid hydrochloride] | 0.65 | 0.03 |  |
| CN(CCOc1ccc(CC(Nc2c(C(=O)C3CCCCC3)cnn2C)C(=O)O)cc1)c1nc2ccccc2o1 (centres unmarked) [Example 51, 3-{4-[2-(Benzoxazol-2-yl-methyl-amino)-ethoxy]-phenyl}-2-(4-cyclohexanecarbonyl-2-methyl-2H-pyrazol-3-ylamino)-propionic acid] | 0.14 | 0.35 |  |
| Cc1oc(-c2ccccc2)nc1CCOc1ccc(C[C@H](Nc2ccccc2C(=O)c2ccncc2)C(=O)O)cc1 [Example 56, 3-{4-[2-(5-Methyl-2-phenyl-oxazol-4-yl)-ethoxy]-phenyl}-2(S)-[2-(pyridine-4-carbonyl)-phenylamino]-propionic acid] | 0.01 | 0.001 |  |
| CN(CCOc1ccc(CC(Cc2ccccc2)C(=O)O)cc1)c1nc2ccccc2o1 (centres unmarked) [Example 26, 3-{4-[2-(Benzoxazol-2-yl-methyl-amino)-ethoxy]-phenyl}-2-benzyl-propionic acid trifluoroacetate] | 1.9 | 0.67 |  |
| CN(CCOc1ccc(CC(Nc2sccc2C(=O)c2ccccc2)C(=O)O)cc1)c1nc2ccccc2o1 (centres unmarked) [Example 52, 3-{4-[2-(Benzoxazol-2-yl-methyl-amino)-ethoxy]-phenyl}-2-(3-benzoyl-thiophene-2-ylamino)-propionic acid] | 0.1 | 0.08 |  |
| O=C(c1ccccc1)c1ccccc1NC(Cc1ccc(OCc2csc(-c3ccc(Cl)cc3)n2)cc1)C(=O)O (centres unmarked) [Example 30, 2-(2-Benzoyl-phenylamino)-3-{4-[2-(4-chlorophenyl)-thiazol-4ylmethoxy]-phenyl}-propionic acid] | 0.3 | 0.05 |  |
| CN(CCOc1ccc(CC(Nc2ccccc2C(=O)c2cccc(O)c2)C(=O)O)cc1)c1nc2ccccc2o1 (centres unmarked) [Example 92, 3-{4-[2-(benzoxazol-2-yl-methyl-amino)-ethoxy]-phenyl}-2-[2-(3-hydroxy-benzoyl)-phenylamino]-propionic acid] | 0.02 | 0.4 |  |
| CN(CCOc1ccc(CC(Nc2ccsc2C(=O)c2ccccc2)C(=O)O)cc1)c1nc2ccccc2o1 (centres unmarked) [Example 25] | 0.07 | 0.001 |  |
| CCCNS(=O)(=O)c1ccc(C(=O)c2ccccc2NC(Cc2ccc(OCCc3nc(-c4ccccc4)oc3C)cc2)C(=O)O)cc1 (centres unmarked) [Example 93, 3-{4-[2-(5-methyl-2-phenyl-oxazol-4-yl)-ethoxy]-phenyl}-2-[2-(4-propylsulfamoyl-benzoyl)-phenylamino]-propionic acid] | 0.1 | 0.055 |  |
